Results taken from ChEMBL document CHEMBL5344446, “Constituents from the Polar Extract of Pisolithus arhizus and Their Anti-inflammatory Activity” (J Nat Prod, 2024).
Calls of active or inactive are those of the source. The calls are words filed in the database; no cut-off is given here.

Key:
[1] = system: THP-1; test: Downregulation of pSTAT3 protein expression in LPS-induced PMA-differentiated human THP-1 cells at […] pretreated with LPS for 3 hrs followed by compound addition and measured after 6 hrs by Western blot analysis; format: functional, cell-based; conditions: dose lower 25.0 mg/ml
[2] = system: THP-1; test: Antiinflammatory activity in PMA-differentiated human THP-1 cells assessed as reduction in LPS-induced IL-6 secretion at 25 to 30 ug/ml pretreated with LPS for 3 hrs followed by compound addition and measured after 6 hrs by ELISA; format: functional, cell-based; conditions: dose 25-30 µg/ml
[3] = system: THP-1; test: Cytotoxicity against PMA-differentiated human THP-1 cells assessed as reduction in cell viability at 25 to 100 ug/ml measured after 24 hrs by MTT assay; format: toxicity, cell-based; conditions: thp-1, 24 h, dose 25-100 µg/ml

O=C1O/C(=C(/C(=O)O)c2ccc(O)cc2)C(O)=C1c1ccc2c(O)c(O)cc(C3=C(O)/C(=C(\C(=O)O)c4ccc(O)cc4)OC3=O)c2c1 was tested, and the Activity [1] was “Active”, the Activity [2] was “Active” and the Activity [3] was “Non-Toxic”.
